Values quoted from earlier work in patent US12240810B2, “Chiral-substituted poly-N-vinylpyrrolidinones and complexes with bimetallic nanoclusters and uses thereof in asymmetric oxidation reactions” (Kansas State University Research Foundation, priority 2019, dated 2025).
≈ marks a conversion by molar mass, not a printed value.

Tested on: Staphylococcus aureus
Conditions: antibacterial activity, background statement on the natural product

Structure (SMILES): CC=CCCCC[C@@]1(O)[C@H](C)C(=O)N2CCC[C@@]21CO [compound 113, (−)-Penibruguieramine A]
- MIC value: 6.4 µg/mL (≈ 22.7 µM)
